Experimental data taken from patent US4613607A, “Medicaments based on derivatives of 1-(4-quinolyl)-2-(4-piperidyl)-ethanol or 1-(4-quinolyl)-3-(4-piperidyl)-propanol” (Pharmuka Laboratoires, priority 1980, dated 1986).
Structures can show the parent of a compound that is named as a salt. Where two headings read alike, the source gives them in different places.

Key:
[1] = test system: ventricular arhythmia caused by the aconitine; assay: Aconitine test on the rat (delay of ventricular arhythmia caused by perfused aconitine); assay type: in vivo; conditions: iv, read-out: Antiarhythmic activity, aconitine test on the rat, ED50
Description: The principle of the method rests on the induction time of the ventricular arhythmia caused by the aconitine which is slowly fed by perfusion into rats. An antiarhythmic substance retards the appearance of the arhythmia and the delay is proportional to the activity of the substance.
Groups of 5 male rats were used. An individual anesthesia was effected (10% urethane: 1 g/kg/ip) in order to permit a catheterization of the vein of the penis. The electrocardiogram was recorded. At time T=0 the substance studied was injected in the form of an aqueous solution, at the rate of 2.5 ml of solution per kg in 30 seconds. At time T=60 seconds, say 30 seconds after the end of the injection, the aconitine was perfused at the rate of 20 μg per minute up to the appearance of supraventricular extra systoles. The time of perfusion of the aconitine was noted.
The results are expressed by an ED50, which is the dose of product, in mg/kg, increasing by 50% the time of perfusion of the aconitine in comparison with the perfusion time of aconitine for the control animals.

[2] = test system: fibrillations caused by an inhalation of chloroform; assay: Chloroform test on the mouse (protection against fibrillations caused by inhalation of chloroform); assay type: in vivo; conditions: ip, 20 min, read-out: Antiarhythmic activity, chloroform test on the mouse, AD50
Description: The product to be tested was administered intraperitoneally 20 minutes before chloroformic intoxication and the possible protection against the arhythmia was shown by recording of the electrocardiogram, which was effected from the appearance of the apnoea. The activity of the products is expressed by an AD50 (dose of product in mg/kg which protects 50% of the animals).

[3] = Acute toxicity to mice, intravenous; conditions: in vivo, male mouse DC1, i.v., 3 days observation
Text: Toxicological properties of the compounds of formula (I): […]
The acute toxicities of the compounds of formula (I) (see results in the above Table) have been determined on the male mouse DC1 (Charles River), by the intravenous method. The LD50 have been calculated, after 3 days observation, by the cumulative method of J. J. Reed and H. Muench (Amer. J. Hyg., 27, 493, 1938).

[4] = dose which protects 50% of the animals, intraperitoneal, 20 minutes before chloroform

Compound | ED50 [1] [mg/kg] | ED50 [2] [mg/kg] | LD50 at 72 h [3] [mg/kg] | ED50 [2, 4] [mg/kg]
C=C[C@H]1CNCC[C@H]1CCC(O)c1ccnc2ccc(OC)cc12 (mixture of isomers) [Example 5, Mixture of 3-[3(R)-ETHENYL 4(R)-PIPERIDYL]-1-(6-METHOXY-4-QUINOLYL)-1-(R)-PROPANOL and 3-[3(R)-ETHENYL 4(R)-PIPERIDYL]-1-(6-METHOXY-4-QUINOLYL)-1(S)-PROPANOL] | 0.44 | 3 | 21.5 | 
OC(CCC1CCNCC1)c1cc(-c2ccccc2)nc2ccccc12 (racemic) [Example 4, 1-(2-PHENYL-4-QUINOLYL)-3-(4-PIPERIDYL)-1-PROPANOL] | 1.22 | 2.5 | 21 | 
CC(C)(C)c1cc(C(O)CCC2CCNCC2)c2ccccc2n1 (racemic) [Example 12, 1-[2-(1,1-DIMETHYL-ETHYL)-4-QUINOLYL]-3-(4-PIPERIDYL)-1-PROPANOL] | 0.8 |  | 26 | 
CC[C@H]1CNCC[C@H]1CC[C@@H](O)c1ccnc2ccc(OC)cc12 [8 (1(R)-propanol isomer)] | 0.65 |  | 29 | 2.5
CC[C@H]1CNCC[C@H]1CC[C@H](O)c1ccnc2ccc(OC)cc12 [8 (1(S)-propanol isomer)] | 0.58 |  | 17 | 2.5
C=C[C@H]1CN(C)CC[C@H]1CC[C@H](O)c1ccnc2ccc(OC)cc12 [9 (3(R)-ethenyl isomer)] | 1 |  | 19 | 5
C=C[C@@H]1CN(C)CC[C@H]1CC[C@H](O)c1ccnc2ccc(OC)cc12 [9 (3(S)-ethenyl isomer)] | 1.4 |  | 33 | > 5
C=C[C@H]1CNCC[C@H]1CC[C@H](O)c1ccnc2ccc(OC)cc12 [Example 6, 3-[3(R)-ETHENYL 4(R)-PIPERIDYL]-1-(6-METHOXY-4-QUINOLYL)-1(S)-PROPANOL] | 0.43 | 3 | 20.3 | 
C=C[C@H]1CNCC[C@H]1CC[C@@H](O)c1ccnc2ccc(OC)cc12 [Example 7, 3-[3(R)-ETHENYL 4(R)-PIPERIDYL]-1-(6-METHOXY-4-QUINOLYL)-1(R)-PROPANOL] | 0.45 | 3 | 33 | 
C=C[C@H]1C[N@@]2CC[C@H]1C[C@@H]2[C@@H](O)c1ccnc2ccc(OC)cc12 [Quinidine sulfate, reference compound] | 7.5 |  | 60 | 18
